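Each compound was tested at five concentrations against cells in 96-well plates for 48 hours. TGI: total growth inhibition.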
Assays:
Test in all cases: DTP human tumour cell line panel, 48 h
[1] = tested on: 786-0 renal
[2] = tested on: A498 renal
[3] = tested on: A549 NSCLC
[4] = tested on: CAKI-1 renal
[5] = tested on: CCRF-CEM leukemia
[6] = tested on: COLO 205 colon
[7] = tested on: DLD-1 colon
[8] = tested on: DMS 114 small cell lung
[9] = tested on: DMS 273 small cell lung
[10] = tested on: EKVX NSCLC
[11] = tested on: HCC-2998 colon
[12] = tested on: HCT-116 colon
[13] = tested on: HL-60(TB) leukemia
[14] = tested on: HOP-62 NSCLC
[15] = tested on: HOP-92 NSCLC
[16] = tested on: HT29 colon
[17] = tested on: IGROV1 ovarian
[18] = tested on: K-562 leukemia
[19] = tested on: KM12 colon
[20] = tested on: LOX IMVI melanoma
[21] = tested on: LXFL 529 NSCLC
[22] = tested on: M14 melanoma
[23] = tested on: M19-MEL melanoma
[24] = tested on: MALME-3M melanoma
[25] = tested on: MOLT-4 leukemia
[26] = tested on: NCI-H226 lung
[27] = tested on: NCI-H23 lung
[28] = tested on: NCI-H522 lung
[29] = tested on: OVCAR-3 ovarian
[30] = tested on: OVCAR-4 ovarian
[31] = tested on: OVCAR-8 ovarian
[32] = tested on: RPMI-8226 leukemia
[33] = tested on: SF-268 CNS
[34] = tested on: SF-295 CNS
[35] = tested on: SF-539 CNS
[36] = tested on: SK-MEL-2 melanoma
[37] = tested on: SK-MEL-28 melanoma
[38] = tested on: SK-MEL-5 melanoma
[39] = tested on: SK-OV-3 ovarian
[40] = tested on: SN12C renal
[41] = tested on: SNB-19 CNS
[42] = tested on: SNB-75 CNS
[43] = tested on: SNB-78 CNS
[44] = tested on: SR leukemia
[45] = tested on: SW-620 colon
[46] = tested on: TK-10 renal
[47] = tested on: UACC-257 melanoma
[48] = tested on: UACC-62 melanoma
[49] = tested on: UO-31 renal
[50] = tested on: XF 498 CNS
[51] = tested on: ACHN renal
[52] = tested on: HCT-15 colon
[53] = tested on: KM20L2 colon
[54] = tested on: NCI-H460 lung
[55] = tested on: OVCAR-5 ovarian
[56] = tested on: U251 CNS

Question: For `O=S1(=O)OCCOS(=O)(=O)C1(I)I`, which TGI [1] is on record?
Answer: Its TGI is 35 µM.

Question: What about the TGI [2] of the same compound?
Answer: The TGI was 30.3 µM.

Question: What about the TGI [3] of the same compound?
Answer: The TGI was 71.1 µM.

Question: What about the TGI [4] of the same compound?
Answer: The TGI was 35.7 µM.

Question: And the TGI [5]?
Answer: Its TGI is 35.6 µM.

Question: What about the TGI [6] of the same compound?
Answer: The TGI was 37.8 µM.

Question: And the TGI [7]?
Answer: The TGI was 35.8 µM.

Question: What about the TGI [8] of the same compound?
Answer: Its TGI is 43.9 µM.

Question: And the TGI [9]?
Answer: Its TGI is 47.3 µM.

Question: What about the TGI [10] of the same compound?
Answer: The TGI was 59 µM.

Question: And the TGI [11]?
Answer: The TGI was 35.2 µM.

Question: What about the TGI [12] of the same compound?
Answer: Its TGI is 29.9 µM.

Question: What about the TGI [13] of the same compound?
Answer: Its TGI is 68.3 µM.

Question: And the TGI [14]?
Answer: The TGI was 38.9 µM.

Question: And the TGI [15]?
Answer: Its TGI is 29.8 µM.

Question: What about the TGI [16] of the same compound?
Answer: The TGI was 69.4 µM.

Question: And the TGI [17]?
Answer: Its TGI is 63.8 µM.

Question: What about the TGI [18] of the same compound?
Answer: Its TGI is 74.6 µM.

Question: What about the TGI [19] of the same compound?
Answer: The TGI was 40.8 µM.

Question: And the TGI [20]?
Answer: The TGI was 30.5 µM.

Question: What about the TGI [21] of the same compound?
Answer: The TGI was 27.3 µM.

Question: And the TGI [22]?
Answer: Its TGI is 50.7 µM.

Question: What about the TGI [23] of the same compound?
Answer: Its TGI is 53.8 µM.

Question: And the TGI [24]?
Answer: Its TGI is 37.6 µM.

Question: And the TGI [25]?
Answer: Its TGI is 56.9 µM.

Question: What about the TGI [26] of the same compound?
Answer: The TGI was 29.7 µM.

Question: And the TGI [27]?
Answer: Its TGI is 27.9 µM.

Question: And the TGI [28]?
Answer: The TGI was 45.2 µM.

Question: And the TGI [29]?
Answer: Its TGI is 73.8 µM.

Question: What about the TGI [30] of the same compound?
Answer: Its TGI is 48.9 µM.

Question: And the TGI [31]?
Answer: The TGI was 59.5 µM.

Question: And the TGI [32]?
Answer: The TGI was 36.8 µM.

Question: And the TGI [33]?
Answer: Its TGI is 74.7 µM.

Question: And the TGI [34]?
Answer: The TGI was 90.8 µM.

Question: What about the TGI [35] of the same compound?
Answer: Its TGI is 40.1 µM.

Question: What about the TGI [36] of the same compound?
Answer: Its TGI is 39.5 µM.

Question: And the TGI [37]?
Answer: Its TGI is 55.2 µM.

Question: And the TGI [38]?
Answer: Its TGI is 30 µM.

Question: And the TGI [39]?
Answer: Its TGI is 47.2 µM.

Question: And the TGI [40]?
Answer: Its TGI is 38.2 µM.

Question: What about the TGI [41] of the same compound?
Answer: Its TGI is 55.3 µM.

Question: And the TGI [42]?
Answer: Its TGI is 48.7 µM.

Question: And the TGI [43]?
Answer: Its TGI is 86.4 µM.

Question: And the TGI [44]?
Answer: Its TGI is 49.1 µM.

Question: What about the TGI [45] of the same compound?
Answer: Its TGI is 39.3 µM.

Question: And the TGI [46]?
Answer: Its TGI is 70.3 µM.

Question: What about the TGI [47] of the same compound?
Answer: The TGI was 46.3 µM.

Question: And the TGI [48]?
Answer: Its TGI is 30.3 µM.

Question: What about the TGI [49] of the same compound?
Answer: The TGI was 33.3 µM.

Question: And the TGI [50]?
Answer: The TGI was 37.5 µM.

Question: How did the TGI [1] turn out when `CCc1cccc(C(C)CC)c1NC(=O)CC1C(=O)Nc2ccccc2S1(=O)=O` (stereo not given) was run?
Answer: The TGI was 33.6 µM.

Question: And the TGI [2]?
Answer: Its TGI is 72.6 µM.

Question: And the TGI [3]?
Answer: Its TGI is 70 µM.

Question: What about the TGI [51] of the same compound?
Answer: Its TGI is over 100 µM.

Question: And the TGI [4]?
Answer: The TGI was 40.2 µM.

Question: And the TGI [5]?
Answer: The TGI was 30.5 µM.

Question: What about the TGI [6] of the same compound?
Answer: Its TGI is 44.5 µM.

Question: And the TGI [7]?
Answer: Its TGI is 33.2 µM.

Question: What about the TGI [8] of the same compound?
Answer: Its TGI is 39.2 µM.

Question: And the TGI [9]?
Answer: Its TGI is 71.3 µM.

Question: What about the TGI [10] of the same compound?
Answer: The TGI was 44.3 µM.

Question: What about the TGI [11] of the same compound?
Answer: The TGI was 22.1 µM.

Question: What about the TGI [52] of the same compound?
Answer: The TGI was 48.7 µM.

Question: And the TGI [14]?
Answer: The TGI was over 100 µM.

Question: What about the TGI [16] of the same compound?
Answer: Its TGI is 47.9 µM.

Question: And the TGI [17]?
Answer: The TGI was over 100 µM.

Question: What about the TGI [18] of the same compound?
Answer: Its TGI is 28.5 µM.

Question: And the TGI [19]?
Answer: Its TGI is 40.5 µM.

Question: What about the TGI [53] of the same compound?
Answer: Its TGI is over 100 µM.

Question: What about the TGI [20] of the same compound?
Answer: The TGI was 39.9 µM.

Question: What about the TGI [21] of the same compound?
Answer: Its TGI is 24.5 µM.

Question: And the TGI [22]?
Answer: Its TGI is over 100 µM.

Question: And the TGI [23]?
Answer: The TGI was over 100 µM.

Question: What about the TGI [24] of the same compound?
Answer: Its TGI is over 100 µM.

Question: What about the TGI [25] of the same compound?
Answer: The TGI was 41.5 µM.

Question: And the TGI [27]?
Answer: The TGI was 40.1 µM.

Question: And the TGI [54]?
Answer: The TGI was over 100 µM.

Question: And the TGI [29]?
Answer: The TGI was 38.2 µM.

Question: What about the TGI [30] of the same compound?
Answer: Its TGI is 39.9 µM.

Question: What about the TGI [55] of the same compound?
Answer: Its TGI is over 100 µM.

Question: And the TGI [31]?
Answer: The TGI was 15.9 µM.

Question: And the TGI [32]?
Answer: The TGI was 43.3 µM.

Question: And the TGI [33]?
Answer: The TGI was over 100 µM.

Question: And the TGI [34]?
Answer: The TGI was over 100 µM.

Question: What about the TGI [35] of the same compound?
Answer: The TGI was 52.1 µM.

Question: And the TGI [36]?
Answer: The TGI was over 100 µM.

Question: And the TGI [37]?
Answer: The TGI was over 100 µM.

Question: What about the TGI [38] of the same compound?
Answer: The TGI was over 100 µM.

Question: And the TGI [39]?
Answer: The TGI was 99.2 µM.

Question: And the TGI [40]?
Answer: Its TGI is over 100 µM.

Question: And the TGI [41]?
Answer: Its TGI is over 100 µM.

Question: And the TGI [42]?
Answer: The TGI was 94.6 µM.

Question: What about the TGI [43] of the same compound?
Answer: Its TGI is 65.5 µM.

Question: What about the TGI [45] of the same compound?
Answer: The TGI was 28.7 µM.

Question: What about the TGI [46] of the same compound?
Answer: Its TGI is 84.5 µM.

Question: What about the TGI [56] of the same compound?
Answer: Its TGI is over 100 µM.

Question: What about the TGI [47] of the same compound?
Answer: The TGI was over 100 µM.

Question: What about the TGI [48] of the same compound?
Answer: The TGI was over 100 µM.

Question: And the TGI [49]?
Answer: Its TGI is 96.2 µM.

Question: What about the TGI [50] of the same compound?
Answer: The TGI was over 100 µM.

Question: What does the source list for `N#CNC1=NC(Cc2ccccc2)C(=O)N1CCc1c[nH]c2ccccc12` (stereo not given)?
Answer: TGI [1]: 42.1 µM; TGI [3]: > 100 µM; TGI [5]: 74.6 µM; TGI [6]: 43.6 µM; TGI [7]: > 100 µM; TGI [8]: 91.9 µM; TGI [9]: > 100 µM; TGI [10]: 81.5 µM; TGI [11]: 48.6 µM; TGI [12]: 50.4 µM; TGI [52]: > 100 µM; TGI [13]: 60.5 µM; TGI [14]: 92.1 µM; TGI [16]: > 100 µM; TGI [17]: > 100 µM; TGI [18]: > 100 µM; TGI [19]: > 100 µM; TGI [20]: > 100 µM; TGI [21]: > 100 µM; TGI [22]: > 100 µM; TGI [23]: 92.4 µM; TGI [25]: 58.3 µM; TGI [26]: > 100 µM; TGI [27]: > 100 µM; TGI [29]: > 100 µM; TGI [30]: > 100 µM; TGI [31]: > 100 µM; TGI [32]: > 100 µM; TGI [33]: 83.5 µM; TGI [34]: > 100 µM; TGI [35]: 83.2 µM; TGI [37]: 67.8 µM; TGI [38]: 41.7 µM; TGI [39]: 80.2 µM; TGI [40]: > 100 µM; TGI [41]: > 100 µM; TGI [42]: 33.2 µM; TGI [43]: 63 µM; TGI [44]: > 100 µM; TGI [45]: > 100 µM; TGI [46]: 89.9 µM; TGI [47]: > 100 µM; TGI [48]: 86 µM; TGI [49]: 64.5 µM; TGI [50]: 68.4 µM

Reference: PubChem BioAssay (NCI)
